27 molecules from patent US8076332B2, “N- (2-aminophenyl) benzamide derivative having urea structure” (Santen Pharmaceutical Co., Ltd., priority 2006, dated 2011) can be followed below.

In this assay the test system is human trabecular meshwork cell line (TM-1 cells). The experiment in a line: Test for evaluation of effect of morphological change on trabecular meshwork cells (cell shape index, CSI). The format is cell-based. The note with it: final concentration 10 μM, incubation 24 hours, CSI=4π×(Cell Area)/(Cell Perimeter)^2, average per group, Control 0.730. As to the method: 1. Test for Evaluation of Effect of Morphological Change on Trabecular Meshwork Cells
As a method for evaluating a cellular morphological change, an evaluation system using the cell shape index (hereinafter referred to as “CSI”) as an index has been reported in The Journal of Clinical Investigation, 103, 1141-1150 (1999). Therefore, according to the method described in the above document, an effect of morphological change of the present compounds on trabecular meshwork cells was evaluated.
A human trabecular meshwork cell line (hereinafter referred to as “TM-1 cells”) reported in Investigative Opthalmology & Visual Science, 43, 151-161 (2002) was used.
Culture medium 1: A reagent was prepared by adding fetal bovine serum (10%), L-glutamine (2 mM), amphotericin B (2.5 μg/mL), and gentamicin (25 μg/mL) to Dulbecco's modified Eagle medium (hereinafter referred to as “D-MEM”).
Culture medium 2: Fetal bovine serum (3%), L-glutamine (2 mM), amphotericin B (2.5 μg/mL), and gentamicin (25 μg/mL) were added to D-MEM.
Cell staining liquid: A mixed liquid of Calcein-AM (16 μM) and Hoechst 33342 (40 μM) was prepared by diluting a Calcein-AM solution (cytoplasmic staining reagent, manufactured by Dojindo Laboratories) and a Hoechst 33342 solution (nuclear staining reagent, manufactured by Dojindo Laboratories) with D-MEM containing L-glutamine (2 mM), amphotericin B (2.5 μg/mL), and gentamicin (25 μg/mL).
TM-1 cells subcultured at 37° C. in a 8% carbon dioxide gas atmosphere were treated with a trypsin/EDTA solution (0.05% trypsin and 0.53 mM tetrasodium ethylenediaminetetraacetate) at 24 hours before performing a drug treatment mentioned below and seeded on a 96-well culture plate. The culture medium 1 was used for the subculture of the cells. The culture medium 2 was used for the cell culture after seeding the cells on the plate.
A test compound was dissolved in dimethyl sulfoxide, whereby a 5 mM solution was prepared. Then, the resulting solution was diluted with the culture medium 2, whereby a 200 μM test compound solution was prepared.
It has been reported that Y-27632 which is a Rho kinase inhibitor induces a morphological change in trabecular meshwork cells in Investigative Ophthalmology & Visual Science, 42, 137-144 (2001). Therefore, Y-27632 (produced according to the method described in WO 90/05723) was used as a positive control, and dissolved in dimethyl sulfoxide in the same manner as the test compound, whereby a 5 mM solution was prepared, and then, the resulting solution was diluted with the culture medium 2, whereby a 200 μM positive control compound solution was prepared.
1) To a 96-well culture plate, a solution of TM-1 cells adjusted to a cell density of […] was added in an amount of 95 μL (1.5×10^4 cells) per well.
2) Incubation was performed at 37° C. in a 8% carbon dioxide gas atmosphere for 24 hours.
3) The test compound solution or positive control compound solution was added in an amount of 5 μL per well (the final concentration of the test compound or positive control compound was 10 μM). As a control, the culture medium 2 containing dimethyl sulfoxide (4%) was added in an amount of 5 μL per well.
4) Incubation was performed at 37° C. in a 8% carbon dioxide gas atmosphere for 24 hours.
5) The cell staining liquid was added in an amount of 10 μL per well.
6) Incubation was performed at 37° C. in a 8% carbon dioxide gas atmosphere for 1 hour to stain the cells.
7) A 37% formaldehyde solution was added in an amount of 10 μL per well.
8) Incubation was performed at room temperature for 1 hour to fix the cells.
9) Washing with phosphate-buffered saline was performed.
10) Using Array Scan Vti HCS reader (manufactured by Cellomics), images of stained cells magnified with a 20 times objective lens were captured in 80 fields (10 fields×8 wells) per test compound addition group.
11) CSI was calculated for each cell and an average value was obtained for each test compound addition group. […]
On to `CNCCN(Cc1ccc(C(=O)Nc2ccccc2N)cc1)C(=O)Nc1ccc2c(c1)OCCO2` [Compound 1-23, N-(2-Aminophenyl)-4-[3-(2,3-dihydrobenzo[1,4]dioxin-6-yl)-1-(2-methylamino-ethyl)ureidomethyl]benzamide], for which the CSI is listed as 0.534. As for `Nc1ccccc1NC(=O)c1ccc(CN(CCCN2CCCC2)C(=O)Nc2ccc3c(c2)OCCO3)cc1` [Compound 1-169, N-(2-Aminophenyl)-4-[3-(2,3-dihydrobenzo[1,4]dioxin-6-yl)-1-[3-(pyrrolidin-1-yl)propyl]ureidomethyl]benz-amide], the figure is 0.566; as for `COc1cccc(NC(=O)N(CCCN2CCOCC2)Cc2ccc(C(=O)Nc3ccccc3N)cc2)c1` [Compound 1-58, N-(2-Aminophenyl)-4-[3-(3-methoxyphenyl)-1-[3-(mor-pholin-4-yl)propyl]ureido-methyl]benzamide], 0.610; as for `CN(C)CCN(Cc1ccc(C(=O)Nc2ccccc2N)cc1)C(=O)Nc1ccccc1` [Compound 1-2, N-(2-Aminophenyl)-4-[1-(2-dimethylaminoerthyl)-3-phenyl-ureidomethyl]benzamide], 0.599. As for `CN(C)c1ccc(NC(=O)N(CCCN2CCOCC2)Cc2ccc(C(=O)Nc3ccccc3N)cc2)cc1` [Compound 1-31, N-(2-Aminophenyl)-4-[3-(4-dimethylaminophenyl)-1-[3-(morpholin-4-yl)propyl]ureidomethyl]benzamide], the figure is 0.632; as for `CN1CCCC1CCN(Cc1ccc(C(=O)Nc2ccccc2N)cc1)C(=O)Nc1ccc(F)c(F)c1` (stereo not drawn) [Compound 1-97, N-(2-Aminophenyl)-4-[3-(3,4-difluorophenyl)-1-[2-(1-methylpyrrolidin-2-yl)-ethyl]ureidomethyl]benzamide], 0.595. In the case of `C[C@@H](N)[C@H]1CC[C@H](C(=O)Nc2ccncc2)CC1` [Compound Y-27632, reference compound], the CSI came to 0.600. Under `Nc1ccccc1NC(=O)c1ccc(CN(CC2CCNCC2)C(=O)Nc2ccc(Cl)cc2)cc1` [Compound 1-34, N-(2-Aminophenyl)-4-[3-(4-chlorophenyl)-1-(piperidin-4-ylmethyl)ureidomethyl] benzamide] stands 0.681. The molecule `CN(C)CCCN(Cc1ccc(C(=O)Nc2ccccc2N)cc1)C(=O)Nc1cccc(OCc2ccccc2)c1` [Compound 1-76, N-(2-aminophenyl)-4-[3-(3-benzyloxyphenyl)-1-(3-dimethylaminopropyl)ureidomethyl]benzamide] registered a CSI of 0.649.

`CNCCN(Cc1ccc(C(=O)Nc2ccccc2N)cc1)C(=O)NC1CCCC1` [Compound 1-22, N-(2-Aminophenyl)-4-[3-cyclo-pentyl-1-(2-methylamino-ethyl)ureidomethyl]benz-amide]: the CSI was 0.619. On to `Nc1ccccc1NC(=O)c1ccc(CN(CCCN2CCOCC2)C(=O)Nc2ccsc2)cc1` [Compound 1-134, N-(2-Aminophenyl)-4-[1-(3-(morpholin-4-yl)propyl]-3-(thiophen-3-yl)ureido-methyl]benzamide], for which the CSI amounted to 0.580. In the case of `NCCCN(Cc1ccc(C(=O)Nc2ccccc2N)cc1)C(=O)Nc1ccc2c(c1)OCCO2` [Compound 1-39, N-(2-Aminophenyl)-4-[1-(3-aminopropyl)-3-(2,3-di-hydrobenzo[1,4]dioxin-6-yl)ureidomethyl]benzamide], the CSI was found to be 0.615.

`CN(C)CCCN(Cc1ccc(C(=O)Nc2ccccc2N)cc1)C(=O)NC(C)(C)C` [Compound 2-5, N-(2-Aminophenyl)-4-[3-t-butyl-1-(3-dimethylaminopropyl)ureidomethyl]benzamide]: the CSI is listed as 0.570. Under `Nc1ccccc1NC(=O)c1ccc(CN(CCCN2CCOCC2)C(=O)Nc2ccc(OC(F)F)cc2)cc1` [Compound 1-60, N-(2-Aminophenyl)-4-[3-(4-difluoromethoxyphenyl)-1-[3-(morpholin-4-yl)propyl]ureidomethyl]benzamide] stands 0.608.

Molecule `CN(C)c1ccc(NC(=O)N(CCO)Cc2ccc(C(=O)Nc3ccccc3N)cc2)cc1` [Compound 1-47, N-(2-Aminophenyl)-4-[3-(4-dimethylaminophenyl)-1-(2-hydroxyethyol)ureidomethyl] benzamide] came in with a CSI of 0.613. In the case of `COc1ccc(NC(=O)N(Cc2ccc(C(=O)Nc3ccccc3N)cc2)CC(C)(C)CN(C)C)cc1OC` [Compound 1-36, N-(2-Aminophenyl)-4-[3-(3,4-dimethoxyphenyl)-1-(3-dimethylamino-2,2-dimethyl-propyl)ureidomethyl]benzamide], the CSI came out at 0.539. Under `CN(C)CCCN(Cc1ccc(C(=O)Nc2ccccc2N)cc1)C(=O)Nc1cccc(O)c1` [Compound 3-1, N-(2-Aminophenyl)-4-[1-(3-dimethylaminopropyl)-3-(3-hydroxyphenyl)ureidomethyl]benzamide] stands 0.616. On to `Nc1ccccc1NC(=O)c1ccc(CN(CCO)C(=O)NCCc2ccccc2)cc1` [Compound 1-49, N-(2-Aminophenyl)-4-[1-(2-hydroxyethyl)-3-phenylethyl-ureidomethyl]benzamide], for which the CSI came to 0.630. `CN(C)CCCN(Cc1ccc(C(=O)Nc2ccccc2N)cc1)C(=O)NCCc1ccccc1` [Compound 1-28, N-(2-Aminophenyl)-4-[1-(3-dimethylaminopropyl)-3-phenylethylureidomethyl]benz-amide] registered a CSI of 0.514. Under `Cc1cc(NC(=O)N(CCCN2CCOCC2)Cc2ccc(C(=O)Nc3ccccc3N)cc2)ccc1F` [Compound 1-135] stands 0.555; under `CC1CCN(CCCN(Cc2ccc(C(=O)Nc3ccccc3N)cc2)C(=O)Nc2ccc3c(c2)OCCO3)CC1` [Compound 1-128, N-(2-Aminophenyl)-4-[3-(2,3-dihydrobenzo[1,4]dioxin-6-yl)-1-[3-(4-methylpiper-idin-1-yl)propyl]ureido-methyl]benzamide], 0.554; under `COC(=O)c1ccc(NC(=O)N(CCCN(C)C)Cc2ccc(C(=O)Nc3ccccc3N)cc2)cc1` [Compound 1-46, N-(2-aminophenyl)-4-[1-(3-dimethylaminopropyl)-3-(4-methoxycarbonylphenyl)ureidomethyl]benzamide], 0.581. Under `CN(C)c1ccc(NC(=O)N(CCCN2CCCC2=O)Cc2ccc(C(=O)Nc3ccccc3N)cc2)cc1` [Compound 1-43, N-(2-Aminophenyl)-4-[3-(4-dimethylaminophenyl)-1-[3-(pyrrolidin-2-on-1-yl)propyl]ureidomethyl]benzamide] stands 0.679; under `CCOC(=O)CNC(=O)N(CCCN(C)C)Cc1ccc(C(=O)Nc2ccccc2N)cc1` [Compound 2-4], 0.664. As for `CN1CCN(CCN(Cc2ccc(C(=O)Nc3ccccc3N)cc2)C(=O)Nc2ccc(F)c(F)c2)CC1` [Compound 1-113, N-(2-Aminophenyl)-4-[3-(3,4-difluorophenyl)-1-[2-(4-methylpiperazin-1-yl)ethyl]-ureidomethyl]benzamide], the figure is 0.585; as for `CN(C)CCCN(Cc1ccc(C(=O)Nc2ccccc2N)cc1)C(=O)Nc1cccnc1` [Compound 1-104, N-(2-Aminophenyl)-4-[1-(3-dimethylaminopropyl)-3-(pyridin-3-yl)ureidomethyl]-benzamide], 0.609; as for `CN(C)CCCN(Cc1ccc(C(=O)Nc2ccccc2N)cc1)C(=O)Nc1ccc(F)c([N+](=O)[O-])c1` [Compound 1-102, N-(2-Aminophenyl)-4-[1-(3-dimethylaminopropyl)-3-(4-fluoro-3-nitrophenyl)ureido-methyl]benzamide], 0.538.
